Assay [1] in a line: ORAC (oxygen radical absorbance capacity) assay. The conditions noted are these: for Antioxidant capacity (ORAC): pure compounds, Table 13; for ORAC value: Centipeda fractions, Table 7. Here is the method:
The antioxidant capacity of the Centipeda fractions was measured using the ORAC procedure (Oxygen Radical Absorbance Capacity). A water soluble analogue of vitamin E, Trolox, was used as a reference standard, and the ORAC value is expressed as μmol of trolox equivalence (TE) per gram of sample extract.
The ORAC assay employed in this study measured the antioxidant scavenging activity in the test samples, against peroxyl radicals induced by 2,2′-azobis(2-amidinopropane)dihydrochloride (AAPH) at 37° C. Fluorescein was used as the fluorescent probe. The method used is based on that of Huang et al.^1, Huang et al.^2 and Prior et al.^3 ^1 Huang et al., 2002. Journal of Agricultural and Food Chemistry 50(16): 1815-1821.^2 Huang et al., 2002. Journal of Agricultural and Food Chemistry 50(16): 4437-4444.^3 Prior et al., 2003. Journal of Agricultural and Food Chemistry 51(11): 3273-3279.
All samples were assayed using the hydrophilic ORAC procedure in serial dilution×4 with acetone:water:acetic acid; 70:29.5:0.5 (A:W:A,) and in quadruplicate, starting with the concentration relevant to the sample, depending on the approximated antioxidant capacity from an initial screen.
Trolox, a water soluble analogue of vitamin E, was used as a reference standard. A trolox standard curve was established from trolox standards prepared at 100, 50, 25, and 12.5 μM in A:W:A.
Briefly, 10 μL fluorescein (6.0×10^−7 M), 20 μL samples/standards/control/blank (A:W:A) and 170 μL […] (20 mM) were added per well. Immediately after loading, the plate was transferred to the plate reader preset to 37° C., and the fluorescence was measured 35 times at one minute intervals. The fluorescence readings were referenced to solvent blank wells. The final ORAC values were calculated using a regression equation between the Trolox concentration and the net area under the fluorescein decay curve, and where possible were expressed as Trolox equivalents (TE) as micromoles per gram of sample.

Assay [2] deals with prostaglandin E2 production in 3T3 Swiss Albino fibroblast cells. As to the kind of experiment: Inhibition of prostaglandin E2 production in calcium ionophore stimulated cells. Type of assay: cell-based. Further details: Anti-inflammatory capacity, Average (PGE2 assay): unit: %. The conditions noted are these: for IC50: range of concentrations, read-out: IC 50 values, Average (PGE2 assay); for dose response in PGE2 assay: over the concentration range tested. As for the experimental part: Samples were tested for their ability to inhibit prostaglandin E2 production in cells stimulated by a calcium ionophore, compared to stimulated cells not exposed to any sample. Inhibition was tested over a range of 3 concentrations, although a dose response was not observed for most samples. This is probably because the samples are very efficient at inhibiting PGE2 production and the range of concentrations used was too narrow. The data presented are the maximal inhibition of PGE2 observed for a given sample.
3T3 Swiss Albino fibroblast cell suspension (Phenol-red free DMEM with 10% FBS and 2 mM L-glutamine) was plated out into 96-well tissue culture plates (1×10^5 cells/mL, 100 μL/well). The cells were cultured overnight at 37° C., 5% CO2. […] Cells+samples were incubated (37° C., 3 hours), before the addition of calcium ionophore A23187. Following 20 min incubation, the plate was centrifuged (1000 g, 3 min) and the supernatants were removed. Included on the plate was a positive control (aspirin; 100 μM), and DMSO control, both with and without calcium ionophore A23187.
The supernatants were diluted by serial dilution (1:500) in enzyme immunoassay (EIA) buffer, and assayed for PGE2 using the Prostaglandin E2 EIA Monoclonal Kit (Cayman Chemical; Cat No. 514010), according to manufacturers' instructions.

Converted amounts (≈) assume the structure as drawn.

Regarding `COC(=O)C(O)C(OC(=O)/C=C/c1ccc(O)c(O)c1)C(/C=C(\O)C(=O)O)OC(=O)/C=C/c1ccc(O)c(O)c1` (stereo not drawn) [Compound 8, 4ξ,5ξ-Di-O-caffeoyl-2,6ξ-dihydroxyhept-2-en-1,7-dioic acid-7-methyl ester], the “Antioxidant capacity (ORAC)” value in assay [1] is listed as 8122 TE/g extract. Further, in assay [2] (5.0 μg/mL), the “Anti-inflammatory capacity, Average (PGE2 assay)” value (“Anti-inflammatory capacity” below) was found to be 73.50. Besides, in assay [2] (Fibroblast), the IC50 came out at 4.73 µg/mL (≈ 8.44 µM).
For `O=C(/C=C/c1ccc(O)c(O)c1)OC(/C=C(\O)C(=O)O)C(OC(=O)/C=C/c1ccc(O)c(O)c1)C(O)C(=O)O` (single isomer, unassigned) [Compound 2, 4ξ,5ξ-Di-O-caffeoyl-2,6ξ-dihydroxyhept-2-en-1,7-dioic acid], in assay [1], the ORAC value is recorded as 3415.1 μmol TE/g of extract and the “Antioxidant capacity (ORAC)” value is reported as 13781 TE/g extract. Further, the “Anti-inflammatory capacity” value in assay [2] (5.0 μg/mL) amounted to 67.38. Further, in assay [2] (Fibroblast), the IC50 came to 2.48 µg/mL (≈ 4.54 µM). In assay [2] (Fibroblast, sample 0.0625 mg/mL, maximal inhibition observed, read-out: % inhibition of PGE2 production ± SEM), the inhibition at 62.5 µg/mL stood at 74.5 ± 8.06%.
As for `COC(=O)/C(O)=C/C(OC(=O)/C=C/c1ccc(O)c(O)c1)C(OC(=O)/C=C/c1ccc(O)c(O)c1)C(O)C(=O)O` (stereo not drawn) [Compound 9, 4ξ,5ξ-Di-O-caffeoyl-2,6ξ-dihydroxyhept-2-en-1,7-dioic acid-1-methyl ester], the “Antioxidant capacity (ORAC)” value in assay [1] was 6822 TE/g extract. For the same compound, the “Anti-inflammatory capacity” value in assay [2] (5.0 μg/mL) is recorded as 45.00. Besides, in assay [2], the “dose response in PGE2 assay” value is reported as “did not exhibit a standard dose response type curve”.
With `CC(=O)Oc1ccccc1C(=O)O` [Aspirin, aspirin, reference compound], in assay [2] (100 μM, positive control), the “Anti-inflammatory capacity” value is given as 54.6. Further, in assay [2] (Fibroblast, 0.01 mM, positive control, read-out: % inhibition of PGE2 production ± SEM), the inhibition at 10 µM was 57.4 ± 14.4%.
As for `COc1c(O)cc2oc(-c3ccc(O)cc3O)c(OC3OC(CO)C(O)C(O)C3O)c(=O)c2c1O` (single isomer, unassigned) [Compound 1, 2′,4′,5,7-tetrahydroxy-6-methoxyflavone-3-O-β-glucopyranoside], in assay [1], the ORAC value is on record as 3871.9 μmol TE/g of extract and the “Antioxidant capacity (ORAC)” value is listed as 12178 TE/g extract. The “Anti-inflammatory capacity” value in assay [2] (5.0 μg/mL) worked out at 52.2. In addition, the IC50 in assay [2] (Fibroblast) amounted to 1.47 µg/mL (≈ 2.97 µM). Moreover, the inhibition at 125 µg/mL in assay [2] (Fibroblast, sample 0.125 mg/mL, maximal inhibition observed, read-out: % inhibition of PGE2 production ± SEM) came to 67.8 ± 2.86%.
In the case of `COC(=O)/C(O)=C/C(OC(=O)/C=C/c1ccc(O)c(O)c1)C(OC(=O)/C=C/c1ccc(O)c(O)c1)C(O)C(=O)OC` (stereo not drawn) [Compound 10, 4ξ,5ξ-Di-O-caffeoyl-2,6ξ-dihydroxyhept-2-en-1,7-dioic acid-dimethyl ester], in assay [1], the “Antioxidant capacity (ORAC)” value is 3957 TE/g extract. Besides, the “Anti-inflammatory capacity” value in assay [2] (5.0 μg/mL) is on record as 73.95. Further, the “dose response in PGE2 assay” value in assay [2] was “did not exhibit a standard dose response type curve”.

The values are drawn from US8299119B2, “Biologically active compounds” (Bio-Active Export Pty. Ltd., priority 2005, dated 2012).
